Assay results published in patent US20220409586A1, “TREATMENT AND PREVENTION OF NEUROINFLAMMATION OR AN INFLAMMATORY BRAIN DISORDER” (Inflazome Limited, priority 2019, published 2022).

Test: Study A: blood-brain barrier penetration, MetaQuant microdialysis of left and right striatum after oral administration
Assay type: in vivo, mouse (C57Bl/6)
Settings: for average peak levels in left and right striatal dialysate: freely-moving adult male C57Bl/6 mice, corrected for dilution, not for recovery; for time of average peak levels in striatal dialysate after compound administration: mice, left and right striatum
Protocol: The present study was designed to determine the free concentration of the compound of formula (I) in the left and right striatum of freely-moving adult male mice after oral administration.
Adult male C57Bl/6 mice (22-28 g; Envigo, the Netherlands) were used for the experiments. Following arrival, animals were housed in groups of 5 in polypropylene cages (40×50×20 cm) with wire mesh top in a temperature (22±2° C.) and humidity (55±15%) controlled environment on a 12 hour light cycle (07.00-19.00). Following surgery, animals were housed individually (cages 30×30×40 cm). Standard diet (SDS Diets, RM1 PL) and domestic quality mains water were available ad libitum.
Mice were anesthetized using isoflurane (2% and 500 mL/min O2). Before surgery, Finadyne (1 mg/kg, s.c.) was administered for analgesia during surgery and the post-surgical recovery period. A mixture of bupivacaine and epinephrine was used for local analgesia of the incision site.
The animals were placed in a stereotaxic frame (Kopf instruments, USA). MetaQuant microdialysis probes with a 3 mm exposed polyacrylonitrile membrane (MQ-PAN 3/3) were implanted bilaterally into the left and right striatum (coordinates for the tip of the probe: AP=+0.8 mm (to bregma), ML=+/−1.7 mm (to midline), DV=−4.0 mm (to dura) with an angle of 0° and the incisor bar set at 0.0 mm. All coordinates were based on “The mouse brain in stereotaxic coordinates” by Paxinos and Franklin (2008). The probes were attached to the skull with a stainless-steel screw and dental cement.
The monosodium salt of the compound of formula (I) was formulated in sterilized tap water at concentrations (with respect to the non-salt form) of 0.2 and 4 mg/mL for oral dosing at 5 mL/kg; 1 mg/kg and 20 mg/kg, respectively.
The MetaQuant microdialysis probes were connected with flexible PEEK tubing (Western Analytical Products Inc. USA; PK005-020) to a microperfusion pump (Harvard) and perfused with a slow flow of artificial CSF (perfusate), containing 147 mM NaCl, 3.0 mM KCl, 1.2 mM CaCl2, and 1.2 mM MgCl2, at a flow rate of 0.12 μL/min and a carrier flow of UP+0.02 M FA+0.04% ascorbic acid at 0.8 μL/min. After a minimum of two hours of prestabilisation, microdialysis samples were collected in 60 minute intervals. Following collection of two baseline samples, the compound of formula (I) (1 or 20 mg/kg in sterilised tap water) was administered orally at t=0 minutes. […]
Microdialysate samples from MetaQuant probes contained a nominal volume of 55.2 μL dialysate. Levels of the compound of formula (I) in MetaQuant microdialysate samples were quantified by LC-MS/MS. […]
Suitable in-run calibration curves were fitted using weighted (1/x) regression and the sample concentrations were determined using these calibration curves. […]

Q: For `CC(C)n1ccc(S(=O)(=O)NC(=O)Nc2c3c(cc4c2CCC4)CCC3)n1` [compound of formula (I)], which “average peak levels in left and right striatal dialysate” value (1 mg/kg oral, at 5 hours after administration) is on record?
A: 12 to 13 nM

Q: What about the “time of average peak levels in striatal dialysate after compound administration” value (1 mg/kg oral) of the same compound?
A: 5 h

Q: And the “average peak levels in left and right striatal dialysate” value (20 mg/kg oral, at 6 hours after administration)?
A: 201 to 243 nM

Q: What about the “time of average peak levels in striatal dialysate after compound administration” value (20 mg/kg oral) of the same compound?
A: 6 h
